A melting point compilation (Tetko et al.; mined from patent text by program, amines drawn as free bases though some values may be those of a salt)

melting point [°C] | SMILES
109 to 110 | CCOC(=O)c1cnc2cc3c(cc2c1Cl)OCO3
223 to 225 | NS(=O)(=O)c1ccc(NCC(=O)NC2CCCCC2)cc1
305 to 307 | COc1cc(OC)c2ncn(/C=C/C(=O)O)c(=O)c2c1
228 to 230 | CSc1ccc(-c2sc(NC(C)=O)nc2/C=C/c2ccc([N+](=O)[O-])cc2)cc1
137 to 138 | CC(=O)Nc1ccc(S(=O)(=O)Nc2nnc(C(C)(C)C)s2)cc1
115 | COc1cccc(N(CC(=O)N(C)c2ccccc2)C(=O)CNC(=O)Nc2cccc(C(C)O)c2)c1 (racemic)
195 to 196 | CC(=O)OCC1OC(n2cnc3c(N)nc(F)nc32)C(OC(C)=O)C1OC(C)=O (configuration not stated)
142 to 145 | CC(C)c1nc(COC(=O)N[C@H](C(=O)N[C@@H](Cc2ccccc2)C[C@H](O)[C@H](Cc2ccccc2)NC(=O)OCc2cncs2)C(C)C)cs1
173 to 175 | O=C(Oc1cc(F)ccc1Br)c1cc2ccccc2oc1=O
245 to 248 | Cc1c(C)c(N2Cc3cc4c(cc3C2)OCO4)c(C)c2c1OC(C)(C)C2c1ccccc1 (configuration not stated)
154 to 155 | CC(C)(C)c1cc(I)c2c(c1)CNS(=O)(=O)O2
65 to 67 | Cn1cc(C2=CCC3(CC2)OCCO3)c2cc(C#N)ccc21
166 to 169 | COc1cc2c(cc1OC)CN(c1nc(N3CCc4cc(OC)c(OC)cc4C3)nc(N3CCc4cc(OC)c(OC)cc4C3)n1)CC2
140 to 143 | Cc1ccc(-c2ncn(-c3ccc(C(F)(F)C(F)(F)C(F)(F)F)cc3)n2)cc1
195 to 196 | CCOC(=O)CCC1(NC(=O)c2ccc3ccccc3c2)C(=O)N(c2ccccc2)c2cc(OCC)ccc21 (configuration not stated)
122 to 125 | COC(=O)C(Oc1ccc(Cl)cc1)c1ccc(I)cc1 (configuration not stated)
120 to 123 | COc1ccc(CSCC2NC(=O)C2NC(=O)OC(C)(C)C)cc1 (configuration not stated)
236 to 238 | Oc1ccc(-c2cc(F)c3cc(O)ccc3c2)cc1
117 to 120 | O=S(=O)(c1ccccc1F)n1ccc2c(OCc3ccccc3)cccc21
103 | CCN(Cc1cccc(-c2ccc(CC3SC(=O)NC3=O)cc2)c1)C(=O)OC(C)(C)C (configuration not stated)
167 to 169 | C[C@H]1CCCN(C(=O)[C@@H]2Cc3ccccc3N2c2nccs2)C1

melting point [°C] | SMILES
81 to 82 | O=Cc1cc(Br)c(Cl)cc1[N+](=O)[O-]
138 to 140 | CC(=O)NCC1CN(c2ccc(N3CCC(=CC#N)C(F)C3)c(F)c2)C(=O)O1 (configuration not stated)
151 to 153 | NC(Cc1c[nH]c2cc(Cl)cc(Cl)c12)C(=O)OCCC(=O)OCc1ccccc1 (configuration not stated)
172 to 175 | N#Cc1cc(Cn2nnc(C(N)=O)c2N)ccc1Cl
158 | CN1C(=O)C(C2=COc3cc4ccccc4cc3O2)=C(c2cn(C(=O)OC(C)(C)C)c3ccccc23)C1=O
> 260 | O=c1[nH]c2ccc(C3CCN(Cc4ccc(-c5ccccc5)cc4)CC3)cc2[nH]1
153 to 155 | COC(=O)c1ccc(Cc2c[nH]c3ccc([N+](=O)[O-])cc23)c(OC)c1
181 to 183 | O=C(O)C1CCc2[nH]c3ccc(Cl)cc3c2C1 (configuration not stated)
153 to 155 | Cc1nc(N2CCC(CC3CC3)C2=O)sc1C(=O)NCc1ccc(F)cc1 (configuration not stated)
111 to 113 | CSc1nnc(C(C)C2CC2)c(=O)n1N (configuration not stated)
166 to 167 | CCC(C(=O)O)c1ccc(N[C@@H](CCC(N)=O)C(=O)O)cc1 (some centres not stated)
162 to 164 | O=C(CNC(=O)OCc1ccc([N+](=O)[O-])cc1)Nc1ccc(C(=O)OCI)cc1
96 to 97 | C=CCOc1ccc(S(=O)(=O)Nc2ccc(Cl)cc2C(=O)c2ccccc2Cl)cc1
83 to 86 | O=C(O)C(CBr)(CBr)CBr
142 to 144 | O=C(NCC(=O)N1CCC(=C2c3ccccc3C=Cc3ccccc32)CC1)OCc1ccccc1
222 to 223 | Cn1cc(-c2c(-c3ccc(F)cc3)nn3ccncc23)ccc1=O
110 to 112 | CN1C(=O)CC[C@]2(C)c3ccc(-c4cc(C(F)(F)F)cc(C(F)(F)F)c4)cc3CC[C@@H]12
206 | COc1ccc(C(C(=O)OC(C)(C)C)N(C(=O)CNC(=O)Nc2cccc(C)c2)c2ccccc2)cc1 (racemic)
122 to 123 | Nc1ncnc2ncn(COCCO)c12
202 to 203 | COc1cc2c(cc1Nc1ncc(Cl)c(Nc3ccc(OC)c4c3C(=O)N(C)C4)n1)CCN(CC(=O)N(C)C)CC2
112 to 113 | CC(Cc1c[nH]c2ccc(F)cc12)C(=O)O (configuration not stated)

melting point [°C] | SMILES
124 to 127 | Cc1cccc(C)c1N(CC(C)N1C(=O)c2ccccc2C1=O)S(C)(=O)=O (configuration not stated)
154 to 157 | O=C1OC(=O)c2c(Sc3ccc(Cl)c(Cl)c3)cc([N+](=O)[O-])cc21
171 to 173 | N#Cc1ccccc1-c1cccc(Cc2ccc(OCc3ccccc3)cc2)c1Nn1cnnc1
164 to 166 | COCCc1nc2c(N)nc3ccccc3c2n1CCOCCNC(=O)N1CCOCC1
179 to 181 | O=C(O)c1cc2c(cc1C(=O)O)COCC2
216 | COc1ccc(-c2cncc(OC3SCC(O)C(O)C3O)c2)cc1 (configuration not stated)
124 to 125 | Oc1cc(Cl)ccc1Oc1ccccc1-c1ncon1
70 | COC(=O)C(C)Oc1ccc(Oc2ccc3cc(Cl)cc(Cl)c3n2)cc1 (configuration not stated)
115 to 117 | COC(c1ccccc1)c1cc(C(F)(F)F)nc2c(C(F)(F)F)cccc12 (configuration not stated)
142 to 143 | CCCOc1ccccc1-c1nc2ncncc2c(=O)[nH]1
190 to 193 | CC[C@H](C)CNC(=O)[C@@H](C[C@H](O)[C@H](CC1CCCCC1)NC(=O)[C@H](Cc1cscn1)NC(=O)OC(C)(C)C)C(C)(C)O
130 to 131 | CCn1ncc2c3onc(-c4cccc(OC)c4)c3cnc21
96.5 to 97.5 | Cc1ccc(C2=CCC(O)CC2)cc1 (configuration not stated)
165 to 166 | O=C(c1cccnc1)N1CC2COc3ccc(Cl)cc3C2=N1 (configuration not stated)
169 to 172 | NC(=O)c1sc2nc(N3CCC(NCC(O)c4cc5ccccc5cn4)CC3)cc(C(F)(F)F)c2c1N (configuration not stated)
186 to 188 | CCCc1nnc2c(NC3CCCC3)nc3ccccc3n12
160 to 162 | CCOC(=O)c1[nH]c2ccc(Cl)cc2c1Sc1ccccc1
129 to 131 | Cc1nc(-c2ccccc2)nc(-c2cccc([N+](=O)[O-])c2)c1C(=O)NCN1CCN(C)CC1
175 to 176 | Cc1nc(N2CCN(Cc3cccc(C(F)(F)F)c3)C2=O)sc1C(=O)NCc1cccnc1
121 to 123 | CCCCC(=O)Nc1ccc(C(F)(F)F)c(-n2nc(CC)n(Cc3ccc(-c4ccccc4S(=O)(=O)NC(=O)OC(C)(C)C)cc3F)c2=O)c1
72 to 80 | COc1cc(N2CCC(N3CCCN(CCO)CC3)CC2)ccc1Nc1ncc2ccc(-c3ccccc3OC)n2n1

SMILES | melting point [°C]
Clc1ccc2c(c1)C(c1ccccc1)=NCc1nnc(CNCC3CC3)n1-2 | 154 to 157
O=[N+]([O-])C=C1CN=C(c2ccccc2)c2cc(Cl)ccc2N1 | 184 to 186
CN1CCN=C1C(Br)(Br)[N+](=O)[O-] | 88 to 90
OCc1nnc2n1-c1ccc(Cl)cc1C(c1ccccc1Cl)=NC2 | 236 to 239
